Values of other authors as cited in article PMC10339703 (Clinical and Translational Science, 2023).

How the values were obtained:
patients with IPF [1] = conditions: commonly reported adverse effects; cited from earlier work
patients with IPF [2] = conditions: most common side effects; cited from earlier work

| SMILES | diarrhea, incidence (patients with IPF [1]) [%] | elevation in liver function tests, incidence (patients with IPF [1]) [%] | rash, incidence (patients with IPF [2]) [%] |
| --- | --- | --- | --- |
| COC(=O)c1ccc2c(c1)NC(=O)/C2=C(\Nc1ccc(N(C)C(=O)CN2CCN(C)CC2)cc1)c1ccccc1 [Nintedanib] | 62 | 14 |  |
| Cc1ccc(=O)n(-c2ccccc2)c1 [Pirfenidone] |  |  | 30 |
